{
  "source": "patent US9266835B2",
  "about": "“Quinoline derivatives useful as CB-1 inverse agonists” (JANSSEN PHARMACEUTICA NV, priority 2014, dated 2016)",
  "assay_type_in_all_cases": "in vivo",
  "key": {"[1]": {"assay": "Chronic DIO Mouse, second study: plasma and brain concentrations", "details": "DIO mice; for concentration at 2 h: male, mouse, oral", "protocol": "Male 14-20-week old diet-induced obese mice were ordered from Taconic. Mice were started on a 60% fat diet (D12492, Research Diets, New Brunswick, N.J.) at 6 weeks of age. Mice were single-housed.\n(§1) Test compounds were formulated in 10% PEG400 and 10% solutol. Test compounds were administered by oral gavage (5 ml kg^−1).\nThe test compound was formulated in 10% PEG400 and 10% solutol. […] At the end of the experiment, the mice were euthanized and blood and tissues were collected.\nIn a second study, Compound #44 was tested according to the procedure as described above, with results as listed in Tables BIO-5A through 5G, below."}, "[2]": {"assay": "Mouse Fast PK/BBB (plasma and brain concentration)", "details": "male, C57bl/6j, brain, oral, N=3 (dose given as 30 mg/kg and 20 mg/kg), read-out: BRAIN Mean Conc. ± Std. Dev"}, "[3]": {"assay": "Open field locomotor study in rats: plasma and brain concentrations 4 hrs post dosing", "details": "male, Sprague Dawley, rat, oral", "text": "Male Sprague Dawley rats were ordered from Charles River (225-250 gm upon arrival). They were fed standard chow diet (Purina 5001) and housed 2 per cage. Male C57bl/6j mice were ordered from Charles River at 22-25 g and housed 3 per cage. They were fed standard chow (Purina 5001). All animals were housed in a temperature-controlled room with 12-hour light/dark cycle. Animals were given food and water ad libitum, except as noted.\nas §1\nMale SD rats were weighed and transferred to the Activity Chambers with access to water. After a 2-hr acclimation period, the rats were dosed with vehicle or test compound (@ 3 and 10 mg/kg). The Activity Chamber monitoring software program was initiated and automatically recorded rat activity in each chamber for a period of 4 hours. At the end of the 4 hour monitoring period, the software was stopped and the rats were removed from the activity chambers. The rats were anesthetized and blood samples were obtained via retro-orbital puncture to determine plasma concentration of compounds. The rats were immediately euthanized with CO2 and the brains removed, washed with PBS, frozen on dry ice and stored at −80° C. for receptor occupancy (RO) analysis.\nSatellite groups of 3 rats were dosed with test compound at 3 mg/kg and 10 mg/kg respectively. Four hours later, the rats were anesthetized. Blood was collected from these rats and then they were perfused with 400 ml heparinized saline through the left ventricle of the heart. The brains were removed and homogenized in PBS (4 ml/gm tissue). The samples were submitted for determination of plasma and brain compound levels.\nCompound #44 was tested in n=8 animals, according to the procedure as described above, with stereotypic counts as listed in Table BIO-5A; and plasma and brain drug levels as listed in Table BIO-5B, below."}},
  "note": "Where two headings read alike, the source gives them in different places.",
  "data": [
    {"smiles": "O=c1cc(NC2CCN(S(=O)(=O)C(F)(F)F)CC2)c2cc(C(c3ccc(Cl)cc3)c3ccc(Cl)cc3)ccc2[nH]1", "note": "[Compound #44, 6-(bis(4-chlorophenyl)methyl)-4-(1-(trifluoromethylsulfonyl)piperidin-4-ylamino)quinolin-2(1H)-one]", "values": [
      {"measurement": "Brain concentration (Std Dev)", "setting": "[1]; 0.3 mg/kg, Day 2, 2 hours post dose", "value": "BLOQ*"},
      {"measurement": "Brain concentration (Std Dev)", "setting": "[1]; 0.3 mg/kg, Day 23, 2 hours post dose", "value": "BLOQ**"},
      {"measurement": "Brain concentration (Std Dev)", "setting": "[1]; 1 mg/kg, Day 2, 2 hours post dose", "value": "BLOQ*"},
      {"measurement": "Brain concentration (Std Dev)", "setting": "[1]; 3 mg/kg, Day 2, 2 hours post dose", "value": "BLOQ*"},
      {"measurement": "concentration at 2 h", "setting": "[1]; brain, 1 mg/kg, 1 mg/kg, Day 23, 2 hours post dose, read-out: Brain concentration (Std Dev)", "value": 36.8, "unit": "ng/g"},
      {"measurement": "concentration at 2 h", "setting": "[1]; brain, 3 mg/kg, 3 mg/kg, Day 23, 2 hours post dose, read-out: Brain concentration (Std Dev)", "value": 100, "unit": "ng/g"},
      {"measurement": "concentration at 2 h", "setting": "[1]; brain, 10 mg/kg, 10 mg/kg, Day 2, 2 hours post dose, read-out: Brain concentration (Std Dev)", "value": 62.3, "unit": "ng/g"},
      {"measurement": "concentration at 2 h", "setting": "[1]; brain, 10 mg/kg, 10 mg/kg, Day 23, 2 hours post dose, read-out: Brain concentration (Std Dev)", "value": 201, "unit": "ng/g"},
      {"measurement": "concentration at 2 h", "setting": "[1]; plasma, 0.3 mg/kg, 0.3 mg/kg, Day 2, 2 hours post dose, read-out: Plasma concentration (Std Dev)", "value": 61.3, "unit": "ng/mL"},
      {"measurement": "concentration at 2 h", "setting": "[1]; plasma, 0.3 mg/kg, 0.3 mg/kg, Day 23, 2 hours post dose, read-out: Plasma concentration (Std Dev)", "value": 192, "unit": "ng/mL"},
      {"measurement": "concentration at 2 h", "setting": "[1]; plasma, 1 mg/kg, 1 mg/kg, Day 2, 2 hours post dose, read-out: Plasma concentration (Std Dev)", "value": 310, "unit": "ng/mL"},
      {"measurement": "concentration at 2 h", "setting": "[1]; plasma, 1 mg/kg, 1 mg/kg, Day 23, 2 hours post dose, read-out: Plasma concentration (Std Dev)", "value": 515, "unit": "ng/mL"},
      {"measurement": "concentration at 2 h", "setting": "[1]; plasma, 3 mg/kg, 3 mg/kg, Day 2, 2 hours post dose, read-out: Plasma concentration (Std Dev)", "value": 759, "unit": "ng/mL"},
      {"measurement": "concentration at 2 h", "setting": "[1]; plasma, 3 mg/kg, 3 mg/kg, Day 23, 2 hours post dose, read-out: Plasma concentration (Std Dev)", "value": 1560, "unit": "ng/mL"},
      {"measurement": "concentration at 2 h", "setting": "[1]; plasma, 10 mg/kg, 10 mg/kg, Day 2, 2 hours post dose, read-out: Plasma concentration (Std Dev)", "value": 2490, "unit": "ng/mL"},
      {"measurement": "concentration at 2 h", "setting": "[1]; plasma, 10 mg/kg, 10 mg/kg, Day 23, 2 hours post dose, read-out: Plasma concentration (Std Dev)", "value": 5280, "unit": "ng/mL"},
      {"measurement": "concentration at 1 h", "setting": "[2]", "value": "7.62 ± 2.28", "unit": "ng/mL"},
      {"measurement": "concentration at 4 h", "setting": "[3]; brain, 3 mg/kg, read-out: Brain Mean ± Std Dev", "value": 9.85, "unit": "ng/g"},
      {"measurement": "concentration at 4 h", "setting": "[3]; brain, 10 mg/kg, read-out: Brain Mean ± Std Dev", "value": 22.7, "unit": "ng/g"},
      {"measurement": "concentration at 4 h", "setting": "[3]; plasma, 3 mg/kg, read-out: Plasma Mean ± Std Dev", "value": 126, "unit": "ng/mL"},
      {"measurement": "concentration at 4 h", "setting": "[3]; plasma, 10 mg/kg, read-out: Plasma Mean ± Std Dev", "value": 501, "unit": "ng/mL"}
    ]}
  ]
}
